The source of these data is patent US20140154717A1, “METHOD FOR DETECTING CANCER CELL USING FLUORESCENTLY LABELED L-GLUCOSE DERIVATIVE, AND CANCER CELL-IMAGING AGENT COMPRISING FLUORESCENTLY LABELED L-GLUCOSE DERIVATIVE” (priority 2011, published 2014).

This assay has as its system mouse insulinoma cells (MIN6). Description: Confocal imaging of tumor cell clusters composed of mouse insulinoma cells (MIN6) using 2-NBDLG. The format is cell-based. The settings on record: 100 μM, perfusion 3 minutes, just after washout; MIN6 cultured 11 days. As to the method: Culture medium containing MIN6 cells suspended at a proportion of 10×10^4 cells/mL was dispersed by pipetting, and dropped on a glass cover slip, then, allowed to stand still in a 5% CO2 incubator for 20 minutes to cause adhesion to the glass surface, and 3 mL of the culture medium was added, and the cells were cultured. The half quantity of the culture medium was exchanged every two days.
MIN6 cells (provided by Professor Miyazaki Junichi, Osaka University, and the passage number was six to nine times) were seeded on a 10 cm petri dish, allowed to stand still in a CO2 incubator, and cultured at 37° C. The half quantity of the culture medium was exchanged every two days.
High glucose-containing Dulbecco's modified Eagle's Medium (DMEM-HG) (SIGMA #D5648) (13.4 g), NaHCO3 (Wako, No. 191-01305) (3.4 g) and 2-Mercaptoethanol (Wako, No. 135-14352) (5 μL) were dissolved in 1 liter of ultra-pure water (Mili Q), and equilibrated with ambient air. Next, pH was adjusted to 7.3 to 7.35 using 1N HCl in a CO2 incubator at 37° C., and sterilized by suction filtration. Directly before use, Hyclone Fetal Bovine Serum (Cat# SH30070.03) was added so as to give a final concentration of 10% and penicillin-streptomycin (Gibco #15140) was added so as to give a final concentration of 0.5%.
MIN6 cells were prepared with culture medium so that the cell number was 10×10^4 cells/mL.
The whole quantity of one vial of 0.5 mg 2-NBDLG was dissolved in 14. 6 mL of a HEPES solution for image acquisition, for preparing a 2-NBDLG solution having a final concentration of 100 μM.
NaCl 131.8 mM, KCl 4.75 mM, KH2PO4 1.19 mM, MgCl2 1.2 mM, CaCl2 1 mM, NaHCO3 5.0 mM, D-Glucose 2.8 mM, HEPES 10 mM (adjusted to pH 7.35 with 1M NaOH). For inhibiting entrance and elimination of fluorescently labeled glucose via a gap junction/hemichannel, 0.1 mM Carbenoxolone (SIGMA #C4790) was added. The HEPES solution for image acquisition was used as a solution for preparing a 2-NBDLG solution and as a solution for preparing a 2-NBDLG/2-TRLG solution. […]

Turning to `O=[N+]([O-])c1ccc(NC2C(O)OC(CO)[C@H](O)C2O)c2nonc12` (stereo partly drawn) [2-NBDLG, 2-[N-(7-Nitrobenz-2-oxa-1,3-diazol-4-yl)amino]-2-deoxy-L-glucose], the “uptake into cell cluster (a), developed cluster with abnormal nuclei” value is recorded as “intense uptake”; the “uptake into cell cluster (b), normal nucleus morphology” value is given as “only a slight uptake”; the “uptake into cell cluster (c), two-dimensionally accumulated planar cluster” value is “almost no increase in the fluorescence intensity”.
